Consider 3 compounds from US20070219236A1, “Dialkoxy-Imidazopyridines Derivatives” (Atlanta Pharma AG, priority 2004, published 2007).

The experiment relates to pentagastrin-stimulated acid secretion of the perfused rat stomach. The experiment in a line: Secretion-inhibiting action on the perfused rat stomach (pentagastrin-stimulated acid secretion). Format: in vivo. The following applies: anesthetized CD rat, female; dose 2 μmol/kg i.d. (intraduodenal); pentagastrin 1 μg/kg i.v. continuous infusion. An excerpt: Testing of the Secretion-Inhibiting Action on the Perfused Rat Stomach
In Table A which follows, the influence of the compounds according to the invention on the pentagastrin-stimulated acid secretion of the perfused rat stomach after intraduodenal administration in vivo is shown.
The abdomen of anesthetized rats (CD rat, female, 200-250 g; 1.5 g/kg i.m. urethane) was opened after tracheotomy by a median upper abdominal incision and a PVC catheter was fixed transorally in the esophagus and another via the pylorus such that the ends of the tubes just projected into the gastric lumen. The catheter leading from the pylorus led outward into the right abdominal wall through a side opening.
After thorough rinsing (about 50-100 ml), warm (37° C.) physiological NaCl solution was continuously passed through the stomach (0.5 ml/min, pH 6.8-6.9; Braun-Unita I). The pH (pH meter 632, glass electrode EA 147; Φ=5 mm, Metrohm) and, by titration with a freshly prepared 0.01N NaOH solution to pH 7 (Dosimat 665 Metrohm), the secreted HCl were determined in the effluent in each case collected at an interval of 15 minutes.
The gastric secretion was stimulated by continuous infusion of 1 μg/kg (=1.65 ml/h) of i.v. pentagastrin (left femoral vein) about 30 min after the end of the operation (i.e. after determination of 2 preliminary fractions). The substances to be tested were administered intraduodenally in a 2.5 ml/kg liquid volume 60 min after the start of the continuous pentagastrin infusion.
The body temperature of the animals was kept at a constant 37.8-38° C. by infrared irradiation and heat pads (automatic, stepless control by means of a rectal temperature sensor).

A value given as a limit tells only on which side of the number the result lay.

For `COc1ccc2nc([S+]([O-])Cc3nccc(OC)c3OC)[nH]c2n1` (stereo not drawn) [Example 1, 2-(3,4-Dimethoxy-pyridine-2-ylmethanesulfinyl)-5-methoxy-3H-imidazo[4,5-b]pyridine], the “Inhibition of acid secretion (%)” value is over 50%.

As to `COc1ccc2nc([S@@+]([O-])Cc3nccc(OC)c3OC)[nH]c2n1` [Example 2, (S)-2-(3,4-Dimethoxy-pyridine-2-ylmethanesulfinyl)-5-methoxy-3H-imidazo[4,5-b]pyridine], the “Inhibition of acid secretion (%)” value is over 50%. Under `COc1ccc2nc([S@+]([O-])Cc3nccc(OC)c3OC)[nH]c2n1` [Example 3, (R)-2-(3,4-Dimethoxy-pyridine-2-ylmethanesulfinyl)-5-methoxy-3H-imidazo[4,5-b]pyridine] stands over 50%.
